Test results published in patent publication US20060106098A1, “Andrographolide and its derivatives as TNF-alpha antagonists” (Advanced Gene Technology, Corp., priority 2004, published 2006).

What was measured:
TNFα = target: T1, TNFα (Homo sapiens, UniProt P01375); assay: In vitro L929 cell proliferation/cytotoxicity assay, TNFα activity inhibition; format: cell-based; conditions: L929 cell line, TNFα 0.1 ng/ml, Act D 2 μg/ml; read-out: IC50 as TNFα antagonist
T1 construct: purchased
Method: (§1) In vitro L929 cell proliferation/cytotoxicity assay was performed on microtiter plates. L929 cells were cultured in Eagle's Minimal Essential Medium (EMEM) containing 10% bovine serum, 1% P/S and 1% non-essential amino acid. Confluent L929 cells were washed with 2 ml PBS solution and then trypsinized, followed by resuspending in complete medium. Two hundred μl cell suspension was aspirated for counting the cell density and the other suspension was centrifuged at 1500 rpm for 5 min. The supernatant was removed and the complete medium was added to dilute cells to a final concentration of 1.5×10^5 cells/ml. One hundred μl of cell suspension was added to each well in 96-well flat-bottomed microtiter plates and incubated for 24 hrs in 5% CO2 atmosphere at 37° C.
The chemical was resuspended in 1×PBS and sterilized with 0.22 μm filters. […]
(§2) The same samples as those for TNFα activity assay were added to the 96-well plate with the medium containing Act D to give the final concentration of Act D 2 μg/ml. […] 50 μl XTT (2,3-bis(2-methoxy-4-nitro-5-sulfophenyl)-5-[((phenylamino)carbonyl]-2H-tetra -zolium hydroxide) mixture was added to each well, and incubated for 4 hrs. Read with ELISA reader at O.D. 490/630 nm. Calculation of the TNFα Activity Inhabitation and Cytotoxicity [formula] [formula] 8. The Effect of the Methanolic Extract of A. Paniculata on L929 Cell Proliferation/Cytotoxicity Assay

L929 cells = assay: Cytotoxicity on L929 cells (XTT, with Act D, without TNFα); format: cell-based; conditions: at the IC50 concentration (60 μM)
Method: as §1, §2

[1] = system: collagen-induced arthritis; assay: Anti-inflammatory effect on rats with collagen-induced arthritis model; format: in vivo, SD rats; conditions: for histopathological slice of joint: rat with CIA
[2] = CIA rats, 3rd day after treatment stopped (T4)
[3] = CIA rats, 7th day after treatment stopped (T5)

T1 sequence (P01375 77-233 limits assumed): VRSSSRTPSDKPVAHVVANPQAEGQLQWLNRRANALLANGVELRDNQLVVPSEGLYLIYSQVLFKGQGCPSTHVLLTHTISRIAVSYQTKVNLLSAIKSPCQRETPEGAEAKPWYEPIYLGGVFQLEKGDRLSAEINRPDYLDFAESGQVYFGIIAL

SMILES | IC50 (TNFα) | cytotoxicity (L929 cells) | decreased percentage of edema [1, 2] | decreased percentage of edema [1, 3] | decreased percentage of edema volume of hind paws ([1]; CIA rats, during the 7-day treatment (T3, 6th day of treatment)) | histopathological slice of joint ([1]; treated IP) | histopathological slice of joint ([1]; treated by external application) | histopathological slice of joint ([1]; treated by oral)
C=C1CC[C@@H]2[C@](C)(CO)[C@H](O)CC[C@@]2(C)[C@@H]1C/C=C1/C(=O)OC[C@H]1O [andrographolide, Andrographolide] | 60 µM | No cytotocixity was found | 61.43% | 50.24% | 48.1% | Proliferation of synovial lining cell and infiltration of erythrocytes and some lymphocytes were observed | Proliferation of synovial lining cell and loosely connective tissues appeared | Proliferation of synovial lining cell and infiltration of lymphocytes were found
C[C@@H]1C[C@H]2[C@@H]3CCC4=CC(=O)C=C[C@]4(C)[C@@]3(F)[C@@H](O)C[C@]2(C)[C@@]1(O)C(=O)CO [dexamethasone, Dexamethasone, reference compound] |  |  | 28.21% | 29.97% |  |  |  | 
